Assay [1] concerns the target T1, human full-length Syk (Homo sapiens, UniProt P43405).
T1 construct: Recombinant human full-length Syk was supplied by Millipore; purchased Millipore
The experiment in a line: Syk Enzyme assay - Radioactive filtration kinase assay. The class given is biochemical. The following applies: recombinant human full-length Syk 1 nM, poly-GT substrate, [γ-33P] ATP, 40 min room temperature. The method, then: Syk Enzyme assay- Radioactive filtration kinase assay
Recombinant human full-length Syk was supplied by Millipore. The activity of Syk kinase was assessed using a radioactive filtration kinase assay.
10 µL of substrate poly-GT (100 µg/mL final) and 4 µl of Syk (1 nM final) in 50 mM Tris-HCl (pH 7.5), 0.1 mM EGTA, 4 mM Mg(CH3COO)2, 0.1 mM Na3VO4, 0.1% (v/v) β-mercaptoethanol, 0.133 mg/mL BSA (bovine serum albumin) were added to 1.5 µl of various concentrations of compound or DMSO vehicle (5% final). The reaction was initiated by the addition of 14.5 µL of 0.36 µCi [γ-^33P] ATP (adenosine tri-phosphate) (10 mCi/ml, PerkinElmer). This was prepared in a half-area NBS plate (Corning) and allowed to stand at room temperature for 40 min.
15 µL of reaction mixture was transferred to a filter plate (Millipore) previously prewetted with a solution of 75 mM phosphoric acid. The reaction was terminated with the addition of 200 µL phosphoric acid. The filter plate was washed three times under vacuum on a vacuum manifold (Millipore cat# MSVMHTS00) at 8" Hg vacuum level with 200 µL phosphoric acid per wash.
30 µL Optiphase™ Supermix (PerkinElmer) was added to each test well and allowed to incubate for at least 1 h before counting. Radioactivity counting was performed in a Wallac MicroBeta®, and the tyrosine phosphorylation activity by Syk was calculated.

Assay [2] deals with LAD2 cells. The experiment in a line: LAD2 cells assay (mast cell degranulation, β-hexosaminidase release). The class given is cell-based. The conditions noted are these: Homo sapiens, 0.5 h; biotin-labeled IgE sensitized LAD2 cells, compound 30 min, activated with 125 ng/mL streptavidin 30 min, released β-hexosaminidase. The source says:
LAD2 is a human mast cell line depending on stem cell factor for its survival, maturation and differentiation. This mast cell line was established by the NIH from bone marrow aspirates from a patient with mast cell sarcoma. LAD2 cells resemble CD34+ - derived human mast cells as they have granules containing tryptase, histamine and β-hexosaminidase. They also express c-kit and FcεRI (Kirshenbaum, et al., Leukemia Research 27: 677-682, 2003).
Sensitization of LAD2 cells
Cells were sensitized (0.2x10^6 cells/mL) in its normal growth factor (Complete StemPro-34 SFM, Gibco 10639-011 containing StemPro-34 nutrient supplement (1/40); glutamine (2 mM) and supplemented with 100 ng/ml SCF) by adding 100 ng/mL of biotin-labeled IgE (USBiological) overnight (16-18 h, 37º, 5% CO2) in a humidified atmosphere (90%).
Compounds were prepared from a 10^-2M stock in 100% DMSO to give seven successive 1/3 dilutions in DMSO. From each concentration, 2 further 1/10 dilutions were prepared in release buffer (137 mM NaCl, 2.70 mM KCI, 0.4 mM NaH2PO4, 5.6 mM (D)-glucose, 1.8 mM CaCl2, 1.3 mM MgSO4, 0.025% BSA). Finally, 5 µl from each diluted concentration were transferred into the assay plate (flat 96-well Nunc). The final compound concentrations tested ranged from 1x10^-5M to 4.12x10^-9M with a final proportion of DMSO in the assay of 0.1%. Control wells were treated with 0.1 % DMSO.
Sensitized LAD2 cells were centrifuged (300 g, 3 min, R.T.) and washed 2 times with release buffer. Cells were resuspended in release buffer and adjusted to a density of 0.2x10^6/mL. 45 µL of the adjusted cells were transfered to the assay plate (∼10,000cells/well) containg 5 µL of the final compound concentrations. LAD2 cells were incubated with the compound for 30 min (37 °C, 5% CO2 90% of humidity) and then activated with 125 ng/mL of streptavidin (Pierce 21125) for 30 min (37°C, 5% CO2, 90% of humidity). After the activation, cells were centrifuged at 1200 g, 10 min, 12 °C and supernatats were removed and transfered to another well for determination of released β-hexosaminidase. Empty wells were filled with 50 µL of release buffer for determination of intracellular β-hexosaminidase. Cells were lysed with 2 cycles of freeze-thaw.
Cells were incubated for 90 minutes, 37 °C with 1 mM β-hexosaminidase substrate (p-nitrophenyl N-acetyl-D-glucosamide, in citric buffer, pH 4.5). Reaction was stopped with 0.4 M glycine solution (pH 10.0) and the plate is read immediately at 405 nm.

In general, IC50 refers to the midpoint of a concentration-inhibition curve. Take `COCCOc1ccc2c(Nc3cnccn3)nn(-c3ccnc(N4C[C@@H]5C[C@H]4CN5)c3)c2c1` [Example 61, 1-{2-[(1S,4S)-2,5-diazabicyclo[2.2.1]hept-2-yl]pyridin-4-yl}-6-(2-methoxyethoxy)-N-pyrazin-2-yl-1H-indazol-3-amine]: the IC50 in assay [1] worked out at 12 nM; in assay [2], 136 nM.
On the same counts, the results for `Cc1nc(N2C[C@@H]3C[C@H]2CN3)cc(-n2nc(Nc3cnccn3)c3ccccc32)n1` [Example 42, 1-{6-[(1S,4S)-2,5-Diazabicyclo[2.2.1]hept-2-yl]-2-methylpyrimidin-4-yl}-N-pyrazin-2-yl-1H-indazol-3-amine] are 9 nM and 254 nM.
On the same counts, the results for `Nc1ccc2c(Nc3cnccn3)nn(-c3ccnc(N4C[C@@H]5C[C@H]4CN5)c3)c2c1` [Example 12, 1-{2-[(1S,4S)-2,5-Diazabicyclo[2.2.1]hept-2-yl]pyridin-4-yl}-N^3-pyrazin-2-yl-1H-indazole-3,6-diamine] are 2.5 nM and 167 nM.
As to `Cc1ccnc(Nc2nn(-c3ccnc(N4C[C@@H]5C[C@H]4CN5)c3)c3cc(O)ccc23)c1` [Example 88, 1-{2-[(1S,4S)-2,5-diazabicyclo[2.2.1]hept-2-yl]pyridin-4-yl}-3-[(4-methylpyridin-2-yl)amino]-1H-indazol-6-ol], the figures for the IC50 in assay [1] and in assay [2] were 5 nM and 364 nM, respectively.
On the same counts, the results for `COc1ccc2c(Nc3cnccn3)nn(-c3cc(N4C[C@@H]5C[C@H]4CN5)ncn3)c2c1` [Example 56, 1-{6-[(1S,4S)-2,5-diazabicyclo[2.2.1]hept-2-yl]pyrimidin-4-yl}-6-methoxy-N-pyrazin-2-yl-1H-indazol-3-amine] are 15 nM and 179 nM.
On the same counts, the results for `O=C(c1ccc2c(Nc3cnccn3)nn(-c3ccnc(N4C[C@@H]5C[C@H]4CN5)c3)c2c1)N1CCCCC1` [Example 21, 1-{2-[(1S,4S)-2,5-Diazabicyclo[2.2.1]hept-2-yl]pyridin-4-yl}-6-(piperidin-1-ylcarbonyl)-N-pyrazin-2-yl-1H-indazol-3-amine] are 10.5 nM and 342 nM.
On the same counts, the results for `Cc1ccc2c(Nc3cnccn3)nn(-c3cncc(N4C[C@@H]5C[C@H]4CN5)c3)c2c1` [Example 71, 1-{5-[(1S,4S)-2,5-diazabicyclo[2.2.1]hept-2-yl]pyridin-3-yl}-6-methyl-N-pyrazin-2-yl-1H-indazol-3-amine] are 5 nM and 111 nM.
Consider `Cc1ccc2c(Nc3cnccn3)nn(-c3ccnc(N4C[C@@H]5C[C@H]4CN5)c3)c2c1` [Example 55, 1-{2-[(1S,4S)-2,5-Diazabicyclo[2.2.1]hept-2-yl]pyridin-4-yl}-6-methyl-N-pyrazin-2-yl-1H-indazol-3-amine], for which the results for the IC50 in assay [1] and in assay [2] were 6 nM and 142 nM, respectively.
On the same counts, the results for `c1ccc2c(c1)c(Nc1cnccn1)nn2-c1ccnc(N2C[C@@H]3C[C@H]2CN3)c1` [Example 10, 1-{2-[(1S,4S)-2,5-Diazabicyclo[2.2.1]hept-2-yl]pyridin-4-yl}-N-pyrazin-2-yl-1H-indazol-3-amine] are 7.4 nM and 55 nM.
For the compound `O=S(=O)(Nc1ccc2c(Nc3cnccn3)nn(-c3ccnc(N4C[C@@H]5C[C@H]4CN5)c3)c2c1)c1ccccc1` [Example 30, N-[1-{2-[(1S,4S)-2,5-Diazabicyclo[2.2.1]hept-2-yl]pyridin-4-yl}-3-(pyrazin-2-ylamino)-1H-indazol-6-yl]benzenesulfonamide], the IC50 in assay [1] is 20 nM.
Turning to `Oc1ccc2c(Nc3cnccn3)nn(-c3cncc(N4C[C@@H]5C[C@H]4CN5)c3)c2c1` [Example 63, 1-{5-[(1S,4S)-2,5-Diazabicyclo[2.2.1]hept-2-yl]pyridin-3-yl}-3-(pyrazin-2-ylamino)-1H-indazol-6-ol], the IC50 in assay [1] was found to be 11 nM; in assay [2], 363 nM.
In the case of `COc1ccc2c(Nc3cnccn3)nn(-c3ccnc(N4CCCNCC4)c3)c2c1` [Example 62, 1-[2-(1,4-diazepan-1-yl)pyridin-4-yl]-6-methoxy-N-pyrazin-2-yl-1H-indazol-3-amine], the figures for the IC50 in assay [1] and in assay [2] were 17 nM and 169 nM, respectively.
The like results for `c1ccc2c(c1)c(Nc1cnccn1)nn2-c1cc(N2C[C@@H]3C[C@H]2CN3)ccn1` [Example 69, 1-{4-[(1S,4S)-2,5-Diazabicyclo[2.2.1]hept-2-yl]pyridin-2-yl}-N-pyrazin-2-yl-1H-indazol-3-amine] were, in that order, 13 nM and 263 nM.
In the case of `Oc1ccc2c(Nc3cnccn3)nn(-c3ccnc(N4CCCNCC4)c3)c2c1` [Example 86, 1-[2-(1,4-diazepan-1-yl)pyridin-4-yl]-3-(pyrazin-2-ylamino)-1H-indazol-6-ol], the results for the IC50 in assay [1] and in assay [2] were 15 nM and 263 nM, respectively.
On to `C[C@H]1CNCCN1c1cc(-n2nc(Nc3cnccn3)c3ccccc32)ccn1` [Example 50, 1-{2-[(2S)-2-methylpiperazin-1-yl]pyridin-4-yl}-N-pyrazin-2-yl-1H-indazol-3-amine], for which the IC50 in assay [1] was 11 nM; in assay [2], 80 nM.
For `COc1ccc2c(Nc3cnccn3)nn(-c3cccc(N4C[C@@H]5C[C@H]4CN5)c3)c2c1` [Example 89, 1-{3-[(1S,4S)-2,5-diazabicyclo[2.2.1]hept-2-yl]phenyl}-6-methoxy-N-pyrazin-2-yl-1H-indazol-3-amine], the concentration for half-maximal inhibition (IC50) in assay [1] is 16 nM; in assay [2], 160 nM.
For the compound `c1ccc2c(c1)c(Nc1cnccn1)nn2-c1ccnc(N2CCCNCC2)c1` [Example 8, 1-[2-(1,4-Diazepan-1-yl)pyridin-4-yl]-N-pyrazin-2-yl-1H-indazol-3-amine], the IC50 in assay [1] was found to be 17 nM.
With `c1cnc(Nc2nn(-c3ccnc(N4C[C@@H]5C[C@H]4CN5)c3)c3cc(C4CC4)ccc23)cn1` [Example 58, 6-cyclopropyl-1-{2-[(1S,4S)-2,5-diazabicyclo[2.2.1]hept-2-yl]pyridin-4-yl}-N-pyrazin-2-yl-1H-indazol-3-amine], the IC50 stood at 4 nM in assay [1] and 266 nM in assay [2].
On the same counts, the results for `COc1ccc2c(Nc3cnccn3)nn(-c3ccnc(N4CCNC[C@@H]4C)c3)c2c1` [Example 76, 6-Methoxy-1-{2-[(2S)-2-methylpiperazin-1-yl]pyridin-4-yl}-N-pyrazin-2-yl-1H-indazol-3-amine] are 11 nM and 137 nM.
`COc1ccc2c(Nc3cnccn3)nn(-c3ccnc(N4C[C@@H]5C[C@H]4CN5)c3)c2c1` [Example 31, 1-{2-[(1S,4S)-2,5-Diazabicyclo[2.2.1]hept-2-yl]pyridin-4-yl}-6-methoxy-N-pyrazin-2-yl-1H-indazol-3-amine]: the IC50 in assay [1] came out at 8 nM; in assay [2] it was 111 nM.

The values are drawn from patent EP2489663A1, “Compounds as syk kinase inhibitors” (Almirall, S.A., priority 2011, dated 2012).
